# Test results as given in patent US11000033B2, “Ketone or oxime compound, and herbicide” (NISSAN CHEMICAL CORPORATION, priority 2014, dated 2021).
# Key:
# Assay type in all cases: in vivo
# Avena fatua = assay: Test Example 5: herbicidal effect by foliage application, plastic box (symbol I); conditions: 320 g/ha, 3 weeks after application
# Text: (§1) Herbicidal Effect Test by Foliage Application
# (§2) Sterilized diluvial soil was placed in a plastic box having a length of 21 cm, a width of 13 cm, and a depth of 7 cm. Each of the seeds of Digitaria ciliaris, Setaria viridis, Echinochloa crus-galli var. crus-galli, Avena fatua, Alopecurus myosuroides, Lolium multiflorum Lam., Apera spica-venti, Abutilon theophrasti, Amaranthus retroflexus, Chenopodium album, Stellaria media, Galium spurium, Veronica persica, corn, soybean, rice plant, wheat, beet, and rapeseed was sowed in a spot-like manner and was covered with the soil of a thickness of about 1.5 cm. Thereafter, the plants were grown in the greenhouse of 25° C. to 30° C. After the plants were grown for 14 days, the emulsion agent of the compound of the present invention prepared in accordance with Formulation Example 2 was diluted with water so as to be a predetermined herbicide amount and the diluted emulsion agent was uniformly applied to a foliage part with a small-size spray. 3 weeks later from the herbicide application, the effect to each plant was investigated in accordance with the criteria of Test Example 1.
# [1] = test system: Echinochloa crus-galli var. crus-galli; assay: Test Example 5: herbicidal effect by foliage application, plastic box (symbol H); conditions: 320 g/ha, 3 weeks after application
# Text: as §1, §2
# corn = assay: Test Example 5: effect on crop by foliage application, plastic box (symbol c); conditions: 320 g/ha, 3 weeks after application
# Text: as §1
# (§3) Sterilized diluvial soil was placed in a plastic box having a length of 21 cm, a width of 13 cm, and a depth of 7 cm. Each of the seeds of Digitaria ciliaris, Setaria viridis, Echinochloa crus-galli var. crus-galli, Avena fatua, Alopecurus myosuroides, Lolium multiflorum Lam., Apera spica-venti, Abutilon theophrasti, Amaranthus retroflexus, Chenopodium album, Stellaria media, Galium spurium, Veronica persica, corn, soybean, rice plant, wheat, beet, and rapeseed was sowed in a spot-like manner and was covered with the soil of a thickness of about 1.5 cm. Thereafter, the plants were grown in the greenhouse of 25° C. to 30° C.
# Abutilon theophrasti = assay: Test Example 5: herbicidal effect by foliage application, plastic box (symbol M); conditions: 320 g/ha, 3 weeks after application
# Text: as §1, §2
# [2] = test system: Echinochloa crus-galli var. crus-galli; assay: Test Example 3: herbicidal effect by foliage application, Wagner pot (symbol H); conditions: application herbicide amount 320 g/ha
# How it was run: (§4)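 Weeds and rice were sown in alluvial soil under 0.1–0.5 cm of standing water and grown for 14 days in a 25–30 °C greenhouse. An emulsion of the compound, diluted in water to a set dose, was sprayed evenly onto the foliage. Effect was scored against fixed criteria 3 weeks after treatment.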
# Veronica persica = assay: Test Example 5: herbicidal effect by foliage application, plastic box (symbol R); conditions: 320 g/ha, 3 weeks after application
# Text: as §1, §2
# [3] = test system: directly sowed rice plant; assay: Test Example 3: effect on crop by foliage application, Wagner pot (symbol b); conditions: application herbicide amount 320 g/ha
# How it was run: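 Steps: fill a 1/10000-are Wagner pot with alluvial soil; add water and mix to submerge at 0.1–0.5 cm depth; sow rice plus Echinochloa crus-galli var. crus-galli, Leptochloa chinensis and Cyperus difformis; grow in a 25–30 °C greenhouse.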
# Apera spica-venti = assay: Test Example 5: herbicidal effect by foliage application, plastic box (symbol L); conditions: 320 g/ha, 3 weeks after application
# Text: as §1, §2
# wheat = assay: Test Example 5: effect on crop by foliage application, plastic box (symbol e); conditions: 320 g/ha, 3 weeks after application
# Text: as §1, §3
# soybean = assay: Test Example 5: effect on crop by foliage application, plastic box (symbol d); conditions: 320 g/ha, 3 weeks after application
# Text: as §1, §3
# rice plant = assay: Test Example 5: effect on crop by foliage application, plastic box (symbol b); conditions: 320 g/ha, 3 weeks after application
# Text: as §1, §3
# Leptochloa chinensis = assay: Test Example 3: herbicidal effect by foliage application, Wagner pot (symbol D); conditions: application herbicide amount 320 g/ha
# How it was run: as §4
# Setaria viridis = assay: Test Example 5: herbicidal effect by foliage application, plastic box (symbol G); conditions: 320 g/ha, 3 weeks after application
# Text: as §1, §2
# beet = assay: Test Example 5: effect on crop by foliage application, plastic box (symbol f); conditions: 320 g/ha, 3 weeks after application
# Text: as §1, §3
# rapeseed = assay: Test Example 5: effect on crop by foliage application, plastic box (symbol g); conditions: 320 g/ha, 3 weeks after application
# Text: as §1, §3
# Cyperus difformis = assay: Test Example 3: herbicidal effect by foliage application, Wagner pot (symbol E); conditions: application herbicide amount 320 g/ha
# Procedure: as §1
# After alluvial soil was placed into 1/10000 are of Wagner pot, water was poured and mixed to form a submerged condition having a water depth of 0.1 cm to 0.5 cm. Seeds of Echinochloa crus-galli var. crus-galli, Leptochloa chinensis, Cyperus difformis, and rice were sowed and the pot was placed in the greenhouse of 25° C. to 30° C. to grow the plants. After the plants were grown for 14 days, the emulsion agent of the compound of the present invention prepared in accordance with Formulation Example 2 was diluted with water so as to be a predetermined herbicide amount and the diluted emulsion agent was uniformly applied to a foliage part with a small-size spray. 3 weeks later from the herbicide application, the effect to each plant was investigated in accordance with the criteria of Test Example 1.
# Alopecurus myosuroides = assay: Test Example 5: herbicidal effect by foliage application, plastic box (symbol J); conditions: 320 g/ha, 3 weeks after application
# Text: as §1, §2
# Lolium multiflorum Lam. = assay: Test Example 5: herbicidal effect by foliage application, plastic box (symbol K); conditions: 320 g/ha, 3 weeks after application
# Text: as §1, §2
# Digitaria ciliaris = assay: Test Example 5: herbicidal effect by foliage application, plastic box (symbol F); conditions: 320 g/ha, 3 weeks after application
# Text: as §1, §2
# Galium spurium = assay: Test Example 5: herbicidal effect by foliage application, plastic box (symbol Q); conditions: 320 g/ha, 3 weeks after application
# Text: as §1, §2
# Stellaria media = assay: Test Example 5: herbicidal effect by foliage application, plastic box (symbol P); conditions: 320 g/ha, 3 weeks after application
# Text: as §1, §2
# Amaranthus retroflexus = assay: Test Example 5: herbicidal effect by foliage application, plastic box (symbol N); conditions: 320 g/ha, 3 weeks after application
# Text: as §1, §2
# Chenopodium album = assay: Test Example 5: herbicidal effect by foliage application, plastic box (symbol O); conditions: 320 g/ha, 3 weeks after application
# Text: as §1, §2
compound,measurement,setting,value
CC(=O)CC1CC(O)=C(c2c(C)cc(-n3ccnc3)cc2C)C1=O (centres unmarked) [7-025],"I: Avena fatua, herbicidal effect (criteria of Test Example 1)",Avena fatua,0 (Herbicidal ratio of 5% or lower (almost no effect))
same,"H: Echinochloa crus-galli var. crus-galli, herbicidal effect (criteria of Test Example 1)",[1],0 (Herbicidal ratio of 5% or lower (almost no effect))
same,"c: corn, effect on crop (criteria of Test Example 1)",corn,0 (Herbicidal ratio of 5% or lower (almost no effect))
same,"M: Abutilon theophrasti, herbicidal effect (criteria of Test Example 1)",Abutilon theophrasti,0 (Herbicidal ratio of 5% or lower (almost no effect))
same,"herbicidal effect on H (Echinochloa crus-galli var. crus-galli), grade 0-5",[2],1 (Herbicidal ratio of 5% or higher and lower than 20%)
same,"R: Veronica persica, herbicidal effect (criteria of Test Example 1)",Veronica persica,0 (Herbicidal ratio of 5% or lower (almost no effect))
same,"effect on crop b (directly sowed rice plant), grade 0-5",[3],0 (Herbicidal ratio of 5% or lower (almost no effect))
same,"L: Apera spica-venti, herbicidal effect (criteria of Test Example 1)",Apera spica-venti,0 (Herbicidal ratio of 5% or lower (almost no effect))
same,"e: wheat, effect on crop (criteria of Test Example 1)",wheat,0 (Herbicidal ratio of 5% or lower (almost no effect))
same,"d: soybean, effect on crop (criteria of Test Example 1)",soybean,0 (Herbicidal ratio of 5% or lower (almost no effect))
same,"b: directly sowed rice plant, effect on crop (criteria of Test Example 1)",rice plant,0 (Herbicidal ratio of 5% or lower (almost no effect))
same,"herbicidal effect on D (Leptochloa chinensis), grade 0-5",Leptochloa chinensis,3 (Herbicidal ratio of 40% or higher and lower than 70%)
same,"G: Setaria viridis, herbicidal effect (criteria of Test Example 1)",Setaria viridis,0 (Herbicidal ratio of 5% or lower (almost no effect))
same,"f: beet, effect on crop (criteria of Test Example 1)",beet,0 (Herbicidal ratio of 5% or lower (almost no effect))
same,"g: rapeseed, effect on crop (criteria of Test Example 1)",rapeseed,0 (Herbicidal ratio of 5% or lower (almost no effect))
same,"herbicidal effect on E, grade 0-5",Cyperus difformis,0 (Herbicidal ratio of 5% or lower (almost no effect))
same,"J: Alopecurus myosuroides, herbicidal effect (criteria of Test Example 1)",Alopecurus myosuroides,0 (Herbicidal ratio of 5% or lower (almost no effect))
same,"K: Lolium multiflorum Lam., herbicidal effect (criteria of Test Example 1)",Lolium multiflorum Lam.,0 (Herbicidal ratio of 5% or lower (almost no effect))
same,"F: Digitaria ciliaris, herbicidal effect (criteria of Test Example 1)",Digitaria ciliaris,3 (Herbicidal ratio of 40% or higher and lower than 70%)
same,"Q: Galium spurium, herbicidal effect (criteria of Test Example 1)",Galium spurium,0 (Herbicidal ratio of 5% or lower (almost no effect))
same,"P: Stellaria media, herbicidal effect (criteria of Test Example 1)",Stellaria media,0 (Herbicidal ratio of 5% or lower (almost no effect))
same,"N: Amaranthus retroflexus, herbicidal effect (criteria of Test Example 1)",Amaranthus retroflexus,0 (Herbicidal ratio of 5% or lower (almost no effect))
same,"O: Chenopodium album, herbicidal effect (criteria of Test Example 1)",Chenopodium album,0 (Herbicidal ratio of 5% or lower (almost no effect))
